According to US8143290B2, “Chemical compounds 572” (AstraZeneca AB, priority 2006, dated 2012):
Where a name gives a salt, the structure may show the parent alone.

Target: T1, recombinant human GR (Homo sapiens, UniProt P04150)
T1 construct: purchased Panvera/Invitrogen P2812 (kit P2893)
T1 sequence (P04150 1-777): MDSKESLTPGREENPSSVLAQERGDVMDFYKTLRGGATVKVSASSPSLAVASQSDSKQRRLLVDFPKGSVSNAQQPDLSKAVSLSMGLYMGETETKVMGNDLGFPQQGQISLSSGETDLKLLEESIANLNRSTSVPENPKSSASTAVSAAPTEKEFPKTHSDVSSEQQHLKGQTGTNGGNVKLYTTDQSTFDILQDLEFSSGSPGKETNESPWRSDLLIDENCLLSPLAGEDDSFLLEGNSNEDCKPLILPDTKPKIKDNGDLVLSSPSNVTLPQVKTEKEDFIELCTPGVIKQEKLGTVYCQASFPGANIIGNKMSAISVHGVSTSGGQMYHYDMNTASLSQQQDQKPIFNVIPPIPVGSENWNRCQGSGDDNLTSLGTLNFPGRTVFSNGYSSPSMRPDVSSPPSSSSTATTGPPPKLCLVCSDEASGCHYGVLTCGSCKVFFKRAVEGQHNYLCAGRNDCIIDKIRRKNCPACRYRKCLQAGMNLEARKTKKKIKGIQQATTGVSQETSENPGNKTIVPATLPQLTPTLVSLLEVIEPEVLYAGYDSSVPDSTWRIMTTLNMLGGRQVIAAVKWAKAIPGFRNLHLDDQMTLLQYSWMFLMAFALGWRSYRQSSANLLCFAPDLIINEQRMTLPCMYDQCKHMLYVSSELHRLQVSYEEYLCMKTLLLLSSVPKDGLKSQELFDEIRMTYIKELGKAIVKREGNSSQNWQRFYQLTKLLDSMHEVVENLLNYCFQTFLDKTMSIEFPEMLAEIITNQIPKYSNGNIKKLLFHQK
Experiment: Human Glucocorticoid Receptor (GR) Assay, fluorescence polarization
Assay type: binding
Details: GS Red tracer, incubated 2 h at r.t., XLfit model 205, read-out: GRhuFL_FP_v2 Mean IC50
How it was run: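 Fluorescence polarization kit assay: recombinant GR and GS Red fluorescent ligand with Stabilizing Peptide and DTT in potassium phosphate/sodium molybdate/EDTA screening buffer. Plates incubated 2 h in the dark at r.t.; DMSO served as 0% and dexamethasone as 100% control.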

Structure (SMILES) | IC50 [nM]
COc1cccc([C@@H](Oc2ccc3c(cnn3-c3ccc(F)cc3)c2)[C@H](C)NC(=O)[C@H]2CCCN2)c1 [Example 304, (R)-N-((1R,2S)-1-(1-(4-fluorophenyl)-1H-indazol-5-yloxy)-1-(3-methoxyphenyl)propan-2-yl)pyrrolidine-2-carboxamide trifluoroacetic acid salt] | 7.5
C[C@H](NC(=O)C(F)(F)F)[C@@H](COc1ccc(F)cc1F)Oc1ccc2c(cnn2-c2ccc(F)cc2)c1 [Example 305, N-((2S,3S)-4-(2,4-difluorophenoxy)-3-(1-(4-fluorophenyl)-1H-indazol-5-yloxy)butan-2-yl)-2,2,2-trifluoroacetamide] | 8.3
C[C@H](NC(=O)C(F)(F)F)[C@H](Oc1ccc2c(cnn2-c2ccc(F)cc2)c1)c1ccc2c(c1)OCC2 [Example 307, N-((1R,2S)-1-(2,3-dihydrobenzofuran-6-yl)-1-(1-(4-fluorophenyl)-1H-indazol-5-yloxy)propan-2-yl)-2,2,2-trifluoroacetamide] | 4.8
COc1cc([C@@H](Oc2ccc3c(cnn3-c3ccc(F)cc3)c2)[C@H](C)NC(=O)C(F)(F)F)ccc1SC [Example 308, 2,2,2-trifluoro-N-((1R,2S)-1-(1-(4-fluorophenyl)-1H-indazol-5-yloxy)-1-(3-methoxy-4-(methylthio)phenyl)propan-2-yl)acetamide] | 6.9
